According to US9487818B2, “TOP2A inhibition by temozolomide and its predictive value of GBM patients survival” (COUNCIL OF SCIENTIFIC & INDUSTRIAL RESEARCH, priority 2010, dated 2016):

Tests used:
U251 glioma cells = test: Cell viability (MTT) assay in U251 cells transfected with TOP2A or cyclophilin siRNA; assay type: cell-based; settings: MTT assay after 48 hrs
Protocol: At test for difference in the % viability of the control and TOP2A siRNA treated cells was estimated and the p values are shown: 2, 4, 8 and 16 μg/mL; p=0.0297, 0.0336, <0.0001 and 0.042 respectively.
The experiment was carried out as in “D” but the cells were treated with temozolomide. At test for difference in the % viability of the control and TOP2A siRNA treated cells was estimated and the p values are shown: 250, 500, 1000 and 2000 μM; p=0.0668, 0.0097, 0.0687 and 0.0134 respectively.
U373, U138, LN18, LN229, U343, U87, K562, U251 and SVG cells were cultured in DMEM respectively with 10% Fetal bovine serum, penicillin and streptomycin at 37° C. in a humidified atmosphere with 5% CO2. The human TOP2A and cyclophilin siRNA duplexes were designed and chemically synthesized by Dharmacon Research (Lafayette, Colo.). The SMARTpool siRNA is a mixture of four different siRNA duplexes targeting distinct coding region sequences of TOP2A (Genbank™ accession number NM_001067). […]
For chemosensitivity assays, 24 hours after plating, the cells were treated with the cytotoxic drugs and incubated at 37° C., 5% CO2 for 45 hours. […] Three hours after MTT addition, the formazan crystals were dissolved in DMSO (200 μl) and measured as absorbance at 550 nm. The absorbance by the control cells was considered to be 100% and all samples were normalized to the control cells. […]

GBM patients = test: Prospective cohort of GBM patients, survival (Kaplan Meier analysis); assay type: in vivo, human; settings: for median survival: radiotherapy with temozolomide
Protocol: Kaplan-Meier survival estimates for 102 GBM patients are calculated for TOP2A transcript levels. Survival curves for the groups positive (log 2 ratio≧9.25; n=34) and negative (log 2 ratio<9.25; n=68) for TOP2A in univariate analysis.
Newly diagnosed glioblastoma patients (n=102) who underwent surgery in the two clinical centers (NIMHANS/SSIHMS) were prospectively included. Approval by the ethics committee and patient consent were obtained prior to initiation of the study. The patients were recruited based on the following inclusion criteria: 1) Adult patients (age between 18 to 65 years) with a supratentorial lobar tumor 2) Patients who underwent maximal safe resection of the tumor with minimal residue noted on post operative MRI scan 3) Patients with post operative Karnofsky's Performance Score (KPS)≧70.
All patients underwent maximal safe resection of the tumor. All patients underwent uniform adjuvant therapy consisting of radiotherapy, administered with a total dose of 59.4 Gy, given in 33 fractions, along with concomitant chemotherapy with temozolamide, administered at the dose of 100 mg/day which was continued daily for 45 days. Subsequently, five cycles of cyclical chemotherapy with temozolamide at the dose of 150 mg/sq. m body surface area for 5 days every 28 days was administered. The patients were followed up clinically and with MR imaging. The maximum follow up period was 34 months.
A cohort of 102 patients of GBM were prospectively recruited and managed by standard treatment protocol (as explained in methods). […] In this cohort, as expected, age was an important predictor of poor outcome as noted by Cox regression analysis (p=0.037; HR=1.023; B=0.022). […] The effect of TOP2A transcript level and age on survival was further evaluated by Cox proportional hazard model to elicit the independent effect of TOP2A on survival. It was noted that both age (p=0.033; HR=1.023; B=0.023) and TOP2A transcript level (p=0.035; HR=0.888; B=−0.119) were significant predictors by multivariate analysis. […]

SMILES	sensitivity of TOP2A siRNA transfected cells in comparison to cyclophilin siRNA transfected cells (U251 glioma cells)	median overall survival (GBM patients; 102 GBM patients, resection, radiotherapy with concomitant and cyclical adjuvant temozolomide) [months]	median survival (GBM patients; patients with TOP2A mRNA levels <9.25 log 2 ratio) [months]	median survival (GBM patients; patients with TOP2A mRNA levels ≧9.25 log 2 ratio) [months]
COc1cc([C@@H]2c3cc4c(cc3[C@@H](O[C@@H]3O[C@@H]5CO[C@@H](C)O[C@H]5[C@H](O)[C@H]3O)[C@H]3COC(=O)[C@H]23)OCO4)cc(OC)c1O [etoposide]	less efficiently	–	–	–
Cn1nnc2c(C(N)=O)ncn2c1=O [temozolomide]	–	16	13	22
